What was measured:
[1] = molecular target: T1, His-YTHDF1 (361-559) (Homo sapiens, UniProt Q9BYJ9); experiment: AlphaScreen-based assay, m6A-containing mRNA binding to YTHDF1; conditions: read-out: IC50, blocking binding between m6A and YTHDF1
T1 construct: made in house; host or cells: E. coli BL21 (DE3)
T1 sequence (Q9BYJ9 with tags, fused parts or gaps): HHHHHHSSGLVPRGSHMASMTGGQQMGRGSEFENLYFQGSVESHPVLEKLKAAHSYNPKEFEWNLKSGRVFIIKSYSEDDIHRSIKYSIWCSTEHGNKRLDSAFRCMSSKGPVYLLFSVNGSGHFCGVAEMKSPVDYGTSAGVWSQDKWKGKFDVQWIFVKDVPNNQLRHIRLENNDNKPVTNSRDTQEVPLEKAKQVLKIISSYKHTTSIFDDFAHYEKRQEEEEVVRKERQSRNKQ
Protocol: Then 10 nM biotinylated m^6A-containing mRNA (5′-biotin-[…] (m^6A) CUGUG-3′) (SEQ ID NO: 15) was added to bind with YTHDF1 (361-559), and unbiotinylated m^6A-containing mRNA was used as the positive control. Before Alpha signal detection, streptavidin donor beads and anti-His acceptor beads were added into the white assay plate in subdued light (OptiPlate™-384, PerkinElmer) and incubated at 4° C. for 1 hour to ensure sufficient binding between biotin tag and streptavidin donor beads, as well as that between His tag and anti-His acceptor beads. Then the Alpha signal was detected on Envision Readers (PerkinElmer).

[2] = molecular target: T2, YTHDF1 (361-559) (Homo sapiens, UniProt Q9BYJ9); experiment: SPR binding assay
T2 construct: GST (N, cleaved yes); made in house; host or cells: E. coli BL21 (DE3)
T2 sequence (Q9BYJ9 with tags, fused parts or gaps): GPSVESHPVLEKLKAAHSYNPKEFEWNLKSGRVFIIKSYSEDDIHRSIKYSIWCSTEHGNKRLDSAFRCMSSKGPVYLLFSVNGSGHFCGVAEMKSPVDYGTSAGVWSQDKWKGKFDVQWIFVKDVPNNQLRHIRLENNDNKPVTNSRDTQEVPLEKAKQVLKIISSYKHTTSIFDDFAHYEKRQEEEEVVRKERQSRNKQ
Protocol: SPR binding assay was conducted at 25° C. on the Biacore T200 instrument (GE Healthcare). YTHDF1 (361-559) was covalently immobilized on a CM5 chip via standard amine-coupling procedure in the condition of 10 mM sodium acetate (pH 5.5).

[3] = molecular target: T2, YTHDF1 (361-559); experiment: Microscale thermophoresis (MST) assay; format: binding
Protocol: Microscale Thermophoresis (MST) assay was performed on MiscroScale Thermophoresis instrument (NanoTemper Technologies) at room temperature using the label-free method. […] And the YTHDF1 (361-559) was diluted to 4 μM with MST buffer. […] Before measuring, the mixture was centrifuged at 13000 rpm for 10 minutes at 4° C. At last, the samples were collected by Monolith NT™ Automated Label Free capillaries (NanoTemper Technologies) and the measurement was started. […] Affinity Analysis Software v2.3 (NanoTemper Technologies).

[4] = molecular target: T1, His-YTHDF1 (361-559); experiment: AlphaScreen competition assay against non-biotinylated m6A-containing mRNA; format: binding
Protocol: 200 nM His-YTHDF1 (361-559) was incubated with non-biotinylated m^6A-containing mRNA at 4° C. for 10 minutes. […] Next, 20 nM biotinylated m^6A-containing mRNA and two kinds of beads were added in subdued light and incubated at 4° C. for 1 hour before detection.
A competitive binding experiment was performed against fixed concentrations of non-biotinylated m^6A-containing mRNA, based on AlphaScreen assay, using 200 nM YTHDF1 and 20 nM biotinylated m^6A-containing mRNA.

[5] = tested on: classical DCs in draining lymph node; experiment: Ex vivo direct-priming by DCs sorted from draining lymph node of treated mice with OT-I peptide; format: in vivo, mouse; conditions: four DC subtypes from SAA treated mice, 1 μg/mL OT-I peptide
Protocol: For in vitro cross-presentation study, mature FLT3L-DCs were harvested on day 9 and purified by EasySep Mouse CD11 c Positive Selection Kit II, then treated with 10 μM SAA or DMSO in IMDM medium (contain 10% bovine and 100 ng/mL FLT3L) for 10 h. […] Then antigen-obtained DCs were purified and co-cultured with naïve T cells from OT-1 mice at a ratio of 1:10 for 96 h. The co-culture medium was 1640 RPMI contains 10% fetal bovine with or without 1 μg/mL OT-1 (OVA 257-264) peptide. For ex vivo DCs cross-presentation assay, four types of DCs (migration CD11b DC, migration CD103′ DC, resident CD11b DC and resident CD8^+ DC) were sorted in draining lymph node from SAA treated B16-OVA bearing mice at day 12. These DCs were co-cultured with OT-1 naïve T cells in the ratio of 1:10 for 96 hours with or without OT-1 peptide. Supernatant IFN-γ production was detected via CBA assay.
Dendritic cells can activate T cells through cross-priming and/or direct-priming. In direct-priming process, DCs could stimulate T cells via surface co-stimulatory molecules such as CD80/CD86 or cytokines related with T cell activation. […] IFN-γ production was assessed by IFN-γ cytometric bead array. […] Then, IFN-γ production was assessed by IFN-γ cytometric bead array.

[6] = tested on: draining lymph node T cells; experiment: Draining lymph node T cell IFN-γ after OT1 peptide stimulation; format: in vivo, mouse; conditions: 1 μg/mL OT1 peptide
Protocol: Tumor infiltrating leukocytes were resuspended by RPMI 1640 medium at 5×10^6 per mL in 96-well plates. Phorbol-12-myristate-13-acetate (PMA) (2.5 μg/mL) and ionomycin (0.5 μg/mL) were used to stimulate T cells together with brefeldin A were added to the culture medium for 2 hours at 37° C. Cell concentration of total lymphocytes from draining lymph node was adjusted to 5×10^6 per mL in 96-well plate. 1 μg/mL OT-1 (OVA 257-264) peptide was added to the wells and stimulated for 96 hours. Samples were stained with CD45 and CD8 on ice for 30 min. Intracellular staining was performed to quantify IFN-γ and granzyme B production.
Then, lymphocytes from draining lymph node were isolated and stimulated with 1 μg/mL OT1 peptide, and IFN-γ producing cell were analyzed by FACS.

Q: `O=C(/C=C/c1ccc(O)c(O)c1/C=C/c1ccc(O)c(O)c1)O[C@H](Cc1ccc(O)c(O)c1)C(=O)O` [SAA, Salvianolic Acid A] was tested. Which IC50 [1] did it give?
A: The IC50 was 860 ± 60 nM.

Q: And the Kd [2]?
A: Its Kd is 2520 nM.

Q: And the Kd [3]?
A: Its Kd is 4700 nM.

Q: What about the “inhibitory activity against YTHDF1 with competitor” value ([4]; 50 nM, 100 nM, 200 nM or 400 nM non-biotinylated m6A-containing mRNA preincubated with YTHDF1) of the same compound?
A: Its value is “remained unchanged”.

Q: And the IC50 ([4]; absence of non-biotinylated m6A-containing mRNA, 200 nM YTHDF1, 20 nM biotinylated mRNA, read-out: inhibitory activity against YTHDF1)?
A: Its IC50 is 800 ± 80 nM.

Q: And the “direct-priming capacity of DC subtypes (IFN-γ production)” value [5]?
A: The value was 3 of the 4 DC subtypes showed improved direct-priming capacity.

Q: And the “IFN-γ production by DLN T cells” value [6]?
A: Its value is “much more IFN-γ than DMSO group”.
